Values joined by “and” are separate entries in the source; they are usually repeats but may differ in a detail not shown here. Equal entries are not always repeated. Structures can show the parent of a compound that is named as a salt.
Tested on: parent strain (SAWy518)
Settings: not given

Compound	Offscreen_18hr	Offscreen_24hr	Offscreen_42hr	18 hours	24 hours	48 hours	OffScreen_percentage	Read_percentage	Offtarget	Offtarget_sub
O=C1NC(=O)/C(=C\c2cccc(C(F)(F)F)c2)S1 [TCS PIM-1 4a]	0.5379	0.7077	0.7912							
OXYCLOZANIDE	0.5071	0.6783	0.7815							
CCC(C)n1ncn(-c2ccc(N3CCN(c4ccc(OC[C@H]5CO[C@](Cn6cncn6)(c6ccc(Cl)cc6Cl)O5)cc4)CC3)cc2)c1=O (stereo partly drawn) [Itraconazole (Sporanox)]	0.7339	0.8546	0.8998							
OC(Cn1cncn1)(Cn1cncn1)c1ccc(F)cc1F [FLUCONAZOLE]	0.7681	0.8873	0.9468							
COc1ccc2c(c1)CC[C@@H]1[C@@H]2CC[C@]2(C)[C@H](NCCCCCCN3C(=O)C=CC3=O)CC[C@@H]12 [U 73122]	0.5917	0.8296	0.9704							
CO[C@H]1O[C@@H]2O[C@@]3(C)CC[C@H]4[C@H](C)CC[C@@H]([C@H]1C)[C@@]24OO3 [Artemether]	0.3535	0.4688	0.7035							
O=c1[nH]c(=O)c2ccccc2o1 [pu-sc-0002 H19]				0.7281	0.8523	0.8964				
C[C@@H]1CC[C@H]2[C@@H](C)C(=O)O[C@@H]3O[C@@]4(C)CC[C@@H]1[C@]32OO4 [ARTEMISININ]	0.4969	0.7016	0.8396							
Nc1[nH]c(=O)ncc1F [FLUCYTOSINE]	0.7196	0.8771	0.9452							
CN(C/C=C/C#CC(C)(C)C)Cc1cccc2ccccc12 [Terbinafine hydrochloride]	0.3316	0.5468	0.9146							
Oc1ccc(Cl)cc1Cc1cc(Cl)ccc1O [DICHLOROPHEN]	0.5869	0.7921	0.8823							
NCC(=O)Nc1ccc(-n2nc(C(F)(F)F)cc2-c2ccc3c(ccc4ccccc43)c2)cc1 [OSU-03012 (AR-12)]	0.0821	0.1608	0.9195							
Clc1ccccc1C(c1ccccc1)(c1ccccc1)n1ccnc1 [CLOTRIMAZOLE]	0.0789	0.1029	0.8087							
O=C(O)[C@]1(Cc2cccc(Nc3nccs3)n2)CC[C@@H](Oc2cccc(Cl)c2F)CC1 [MK-5108 (VX-689)]	0.6785	0.8599	0.9444							
Br.Br.N=C(N)SCCN [AMINOETHYLISOTHIOUREA DIHYDROBROMIDE]	0.0502	0.0525	0.1802							
N.S=C(S)N1CCCC1 [Ammonium pyrrolidinedithiocarbamate]	0.6686	0.8623	0.942							
N#Cc1c(Cl)c(Cl)c(Cl)c(C#N)c1Cl [CHLOROTHALONIL]	0.6512	0.8372	0.9297							
CSc1nc2cc(Cl)c(Oc3cccc(Cl)c3Cl)cc2[nH]1 [TRICLABENDAZOLE]	0.3546	0.5896	0.8341							
Cc1c(N)nc([C@H](CC(N)=O)NC[C@@H](N)C(N)=O)nc1C(=O)N[C@H](C(=O)N[C@@H](C)[C@H](O)[C@@H](C)C(=O)N[C@@H](C(=O)NCCc1nc(-c2nc(C(=O)NCCC[S+](C)C)cs2)cs1)[C@@H](C)O)C(O[C@H]1O[C@H](CO)[C@H](O)[C@@H](O)[C@H]1O[C@H]1O[C@H](CO)[C@@H](O)[C@H](OC(N)=O)[C@@H]1O)c1c[nH]cn1.O=S(=O)([O-])O (stereo partly drawn) [Bleomycin sulfate]	0.261	0.4579	0.8554							
CO[C@H]1C[C@@H]2CC[C@@H](C)[C@@](O)(O2)C(=O)C(=O)N2CCCC[C@H]2C(=O)O[C@H]([C@H](C)C[C@@H]2CC[C@@H](OC(=O)C(C)(CO)CO)[C@H](OC)C2)CC(=O)[C@H](C)/C=C(\C)[C@@H](O)[C@@H](OC)C(=O)[C@H](C)C[C@H](C)/C=C/C=C/C=C/1C [Temsirolimus]	0.0544	0.0562	0.0968							
N.N.N.N.N.N.N.N.N.N.N.N.N.N.[Cl-].[Cl-].[Cl-].[Cl-].[Cl-].[Cl-].[O-2].[O-2].[Ru+3].[Ru+3].[Ru+4] [Ruthenium red]	0.6166	0.8198	0.9382							
C=CC(C1=CC(=O)C(OC)=CC1=O)c1ccc(O)cc1 (stereo not drawn) [Dalbergione,4-methoxy-4-hydroxy-]	0.8261	0.9183	0.9703				102.367 percentage	102.367 percentage		
N#Cc1ccc(Oc2ccc3c(c2)COB3O)cc1 [Crisaborole]	0.594	0.7965	0.9431							
CC[C@H](C(=O)[C@H](C)[C@@H](O)[C@@H](C)[C@@H]1O[C@@H]([C@@H](CC)C(=O)O)CC[C@H]1C)[C@H]1O[C@]2(C=C[C@@H](O)[C@]3(CC[C@@](C)([C@H]4CC[C@](O)(CC)[C@H](C)O4)O3)O2)[C@H](C)C[C@H]1C [Salinomycin (Procoxacin)]	0.8013	0.892	0.9461							

Compound	Offscreen_18hr	Offscreen_24hr	Offscreen_42hr	18 hours	24 hours	48 hours	OffScreen_percentage	Read_percentage	Offtarget	Offtarget_sub
O=C(/C=C/c1ccc(O)c(O)c1)OCCc1ccccc1 [PHENETHYL CAFFEATE (CAPE)]	0.3307	0.5133	0.8223							
CC(C(=O)O)c1ccc2c(c1)[nH]c1ccc(Cl)cc12 (stereo not drawn) [CARPROFEN]	0.7281	0.8523	0.8964							
Cl.O=S(=O)(c1cccc2c(I)cccc12)N1CCCNCC1 [ML-7, reference compound]									NO	0.3788
CC(Cc1ccc(O)c(O)c1)C(C)Cc1ccc(O)c(O)c1 (stereo not drawn) [Nordihydroguaiaretic acid, reference compound]	0.8169	0.9084	0.9699				101.227 percentage	101.227 percentage		
Oc1ccc2ccccc2c1SSc1c(O)ccc2ccccc12 [IPA-3]	0.0457	0.0481	0.1263							
COc1cccc2c1C(=O)c1c(O)c3c(c(O)c1C2=O)C[C@@](O)(C(=O)CO)C[C@H]3O[C@H]1C[C@H](N)[C@H](O)[C@H](C)O1.Cl [Doxorubicin (Adriamycin)]	0.4346	0.6005	0.8771							
CC(C)(C)c1ccc(S(=O)(=O)/C=C/C#N)cc1 [Bay 11-7085]	0.0422 and 0.0395	0.0424 and 0.04								
Oc1ccc(Nc2nc(-c3ccc(Cl)cc3)cs2)cc1 [SKI II]	0.4105	0.6287	0.8658							
O=C(O)/C=C/C=C/c1ccccc1 [JUAREZIC ACID]	0.6813	0.7831	0.827							
Oc1c(Cl)cc(Cl)c2cccnc12 [Capitrol]	0.0472	0.0467	0.0526							
CC(C)Cn1c(=O)n(C)c(=O)c2[nH]cnc21 [3-Isobutyl-1-methylxanthine, reference compound]									NO	0.4308
O=C1C(Cl)=C(Cl)C(=O)C(Cl)=C1Cl [CHLORANIL]	0.1832	0.4077	0.9247							
CCCCCCC(=O)OC1CC(C)(C)NC(C)(C)C1.Cl [TMPH hydrochloride, reference compound]									NO	0.4142
CCCCCCCCCCCCC[N+](C)(C)Cc1ccccc1.[Cl-] [BENZALKONIUM CHLORIDE]	0.0504	0.056	0.5903							
Nc1c2ccccc2nc2ccccc12 [AMINACRINE]	0.3466	0.4931	0.7904							
CCC[C@H](NC(=O)/C(C#N)=C/c1cccc(Br)n1)c1ccccc1 [WP1130]	0.6544	0.8363	0.9253							
CC(C)N(CCC(=O)c1ccc2ccccc2c1)Cc1ccccc1.Cl [ZM 39923 HCl]	0.0402	0.0403	0.0401							
C=CC[C@@H]1/C=C(\C)C[C@H](C)C[C@H](OC)[C@H]2O[C@@](O)(C(=O)C(=O)N3CCCC[C@H]3C(=O)O[C@H](/C(C)=C/[C@@H]3CC[C@@H](O)[C@H](OC)C3)[C@H](C)[C@@H](O)CC1=O)[C@H](C)C[C@@H]2OC [TACROLIMUS]	0.727	0.8973	0.9661							
CCc1oc2ccccc2c1C(=O)c1cc(Br)c(O)c(Br)c1 [BENZBROMARONE]	0.5194	0.7137	0.8516							
CC[n+]1c(/C=C/C=C2/N(C)c3ccccc3C2(C)C)sc2ccccc21.[I-] [AC-93253 iodide]	0.3559	0.5533	0.821							
Cc1ccc(S(=O)(=O)/C=C/C#N)cc1 [BAY 11-7082 (BAY 11-7821)]	0.151	0.3413	0.9249							
[H]/N=C(\N/C(=N/[H])NCCCCCCNC(=N)NC(=N)Nc1ccc(Cl)cc1)Nc1ccc(Cl)cc1 [Chlorhexidine hydrochloride]	0.5517	0.7908	0.9568							
CCCCCCc1ccc(O)cc1O [HEXYLRESORCINOL]	0.6446	0.822	0.8874							

Same assay, conditions: parent strain growth reading, 18 hr

Compound	Offscreen_18hr
JAK3 Inhibitor VI	0.0531

Same assay, conditions: parent strain growth reading, 24 hr

Compound	Offscreen_24hr
JAK3 Inhibitor VI	0.0592

Same assay, conditions: parent strain growth reading, 42 hr

Compound	Offscreen_42hr
JAK3 Inhibitor VI	0.0892

— article PMC11637378, “Optogenetic screening of MCT1 activity implicates a cluster of non-steroidal anti-inflammatory drugs (NSAIDs) as inhibitors of lactate transport” (PLOS ONE, 2024)
